From US12492173B2, “Herbicidal substituted N-tetrazolyl aryl carboxamides” (Bayer Aktiengesellschaft, priority 2019, dated 2025) come the findings set out here.

Assay type in all cases: in vivo
Experiment [1] relates to Abutilon theophrasti. Kind of experiment: Pre-emergence herbicidal action, ABUTH. To be noted: dosage 320 g/ha, scored visually after 3 weeks vs untreated controls (100% = plants have died). In outline:
(§1)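 Application took place on the soil surface immediately after sowing into sandy loam, using aqueous WP or EC preparations with 0.2% wetting agent. Visual percent scoring followed 3 weeks later, untreated pots serving as reference.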

Experiment [2] relates to Matricaria inodora. Kind of experiment: Pre-emergence herbicidal action, MATIN. The settings on record: dosage 320 g/ha, scored visually after 3 weeks vs untreated controls (100% = plants have died). In outline:
as §1

The test system of experiment [3] is Stellaria media. Kind of experiment: Pre-emergence herbicidal action, STEME. To be noted: dosage 320 g/ha, scored visually after 3 weeks vs untreated controls (100% = plants have died). In outline:
as §1

Experiment [4] relates to Abutilon theophrasti. Kind of experiment: Post-emergence herbicidal action, ABUTH. Set-up: key: % herbicidal action vs untreated; 100 = plants died, 0 = like control. Summed up: (§2)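 WP or EC formulations, diluted in water at 600 to 800 l/ha with 0.2% wetting agent, are sprayed onto green parts of one-leaf-stage plants grown in sandy loam. Visual assessment of percent damage relative to untreated controls follows after approximately 3 weeks in the greenhouse.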

Experiment [5] relates to Matricaria inodora. The experiment can be described thus: Post-emergence herbicidal action, MATIN. The arrangement: key: % herbicidal action vs untreated; 100 = plants died, 0 = like control. In outline:
as §2

In experiment [6] the test system is Viola tricolor. Kind of experiment: Post-emergence herbicidal action, VIOTR. The arrangement: key: % herbicidal action vs untreated; 100 = plants died, 0 = like control. Summed up:
as §2

As to `CSCc1c(C(F)(F)F)ccc(C(=O)Nc2nnnn2C)c1Cl` [Example 1-296], the “herbicidal activity ABUTH” value in experiment [1] is 100%. Besides, in experiment [2], the “herbicidal activity MATIN” value worked out at 100%. For the same molecule, the “herbicidal activity STEME” value in experiment [3] was determined as 100%. Also, the “herbicidal action ABUTH” value in experiment [4] (post-emergence, dosage 80 g/ha) is listed as 100%. Moreover, the “herbicidal action MATIN” value in experiment [5] (post-emergence, dosage 80 g/ha) turned out to be 100%. Besides, in experiment [6] (comparative experiment, post-emergence, 5 g of a.i./ha), the “Herbicidal action against VIOTR” value is listed as 100. In addition, the “herbicidal action VIOTR” value in experiment [6] (post-emergence, dosage 80 g/ha) turned out to be 100%.

`Cc1c(C(=O)Nc2nnnn2C)ccc(C(F)(F)F)c1C[S+](C)[O-]` (stereo not shown) [Example 1-84]: the “herbicidal activity ABUTH” value in experiment [1] was 100%. The “herbicidal activity MATIN” value in experiment [2] turned out to be 100%. Also, the “herbicidal activity STEME” value in experiment [3] was found to be 100%. In addition, the “herbicidal action ABUTH” value in experiment [4] (post-emergence, dosage 80 g/ha) came out at 90%. The “herbicidal action MATIN” value in experiment [5] (post-emergence, dosage 80 g/ha) came out at 100%. In experiment [6] (post-emergence, dosage 80 g/ha), the “herbicidal action VIOTR” value was 100%.

Consider `CCSCc1c(C(F)(F)F)ccc(C(=O)Nc2nnnn2CC)c1Br` [Example 2-383], for which the “herbicidal activity ABUTH” value in experiment [1] is 100%. Moreover, the “herbicidal activity MATIN” value in experiment [2] came out at 100%. For the same molecule, the “herbicidal activity STEME” value in experiment [3] is reported as 100%. For the same molecule, the “herbicidal action ABUTH” value in experiment [4] (post-emergence, dosage 80 g/ha) came out at 100%. Besides, the “herbicidal action MATIN” value in experiment [5] (post-emergence, dosage 80 g/ha) worked out at 100%. In experiment [6] (post-emergence, dosage 80 g/ha), the “herbicidal action VIOTR” value was found to be 100%.

Take `CCn1nnnc1NC(=O)c1ccc(C(F)F)c(CSC)c1C` [Example 2-107]: in experiment [1], the “herbicidal activity ABUTH” value worked out at 100%. Moreover, the “herbicidal activity MATIN” value in experiment [2] is on record as 100%. In experiment [3], the “herbicidal activity STEME” value amounted to 90%. For the same molecule, in experiment [4] (Dosage 80 g/ha), the “herbicidal action ABUTH” value came to 90. For the same molecule, the “herbicidal action MATIN” value in experiment [5] (Dosage 80 g/ha) is 90. The “herbicidal action VIOTR” value in experiment [6] (Dosage 80 g/ha) worked out at 100.
